Source: PMC11394742, “Discovery of Indole–Thiourea Derivatives as Tyrosinase Inhibitors: Synthesis, Biological Evaluation, Kinetic Studies, and In Silico Analysis” (International Journal of Molecular Sciences, 2024)
Where “and” joins values, the source holds several entries; their conditions need not be identical. Equal values may be shown once.

Tests used:
[1] = Stability in aqueous solution (HPLC main peak area); type: physicochemical; conditions: room temperature, 275 nm
Procedure: Table S1. Gradient elution of the mobile phase for the synthetic compounds using HPLC.
The mobile phase consisted of Solution A (0.1% acetic acid in water) and Solvent B
(acetonitrile), with gradient elution employed throughout the analysis. The flow rate was
Time Solution (A) % Solution (B) %
Table S2. The stability of the synthesized compounds in aqueous solution.
Each compound (2.0 mg) was dissolved in an appropriate volume of water to achieve
an approximate concentration of 1-2 mg/mL. The solutions were then subjected to
ultrasonic treatment, filtered, and analyzed. During stability testing, varying degrees of
To facilitate analysis, these
samples were reconstituted with additional water or treated ultrasonically, filtered, and
absorption at approximately 275 nm, which was selected for detection. The integration
method employed was based on the minimum area approach to accurately determine the
retention time (min) and main peak area (%) of all synthesized compounds. The prepared
samples were stored at room temperature, and their stability in aqueous solution was
evaluated at 0, 2, 4 days, and 2 months using the aforementioned analytical method.
Compounds 0 day 2 day 4 days 2 months RT Area RT Area RT Area RT Area

[2] = DPPH free radical-scavenging assay; conditions: 0.2 mM DPPH in EtOH, 15 min, room temperature, 515 nm; read-out: SC50 ± SD (DPPH radical scavenging)
Procedure: The DPPH radical-scavenging activity was evaluated using Blois’ method. A 0.2 mM solution of DPPH in ethanol (EtOH) was prepared as the working reagent. Each sample (20 μL) was introduced into a 96-well plate, followed by the addition of 180 μL of the DPPH solution. […] The SC50 value, representing the concentration required to scavenge 50% of the DPPH radicals, was determined for each sample. Each measurement was performed in triplicate, and the mean value was reported. Ascorbic acid served as the positive control throughout the experiment.

mushroom tyrosinase = biological target: T1, mushroom tyrosinase (Agaricus bisporus, UniProt C7FF04); assay: Tyrosinase inhibition assay; type: biochemical; conditions: L-tyrosine substrate, 37 °C 10 min, absorbance 490 nm; mean ± SEM
T1 construct: purchased Sigma Chemicals (St. Louis, MO, USA)
T1 sequence (C7FF04 1-392): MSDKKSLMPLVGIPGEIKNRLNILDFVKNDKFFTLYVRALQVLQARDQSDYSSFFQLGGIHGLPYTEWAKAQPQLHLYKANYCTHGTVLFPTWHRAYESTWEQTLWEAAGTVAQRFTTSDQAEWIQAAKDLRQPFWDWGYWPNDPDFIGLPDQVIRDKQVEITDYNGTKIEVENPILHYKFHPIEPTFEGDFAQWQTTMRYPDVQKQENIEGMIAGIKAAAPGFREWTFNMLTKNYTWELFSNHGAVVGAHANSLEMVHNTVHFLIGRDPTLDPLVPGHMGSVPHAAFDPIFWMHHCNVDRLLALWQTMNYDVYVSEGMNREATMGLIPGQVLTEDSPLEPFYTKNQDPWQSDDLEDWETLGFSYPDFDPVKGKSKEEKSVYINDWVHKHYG
Procedure: In the enzymatic assay, a reaction mixture was prepared containing 0.1 M potassium phosphate buffer (pH 6.8), 2 mM L-tyrosine, and 2500 units of tyrosinase. Samples at various concentrations were dispensed as 20 µL aliquots into a 96-well plate. Each well received 130 µL of substrate solution (buffer and L-tyrosine), followed by 5 µL of tyrosinase and 45 µL of buffer solution.

tyrosinase = conditions: natural product; cited from earlier work
B16F10 melanoma cells = conditions: cited from earlier work
mTYR = biological target: T2, mTYR (Agaricus bisporus, UniProt C7FF04); assay: Kinetic mechanism analysis (Lineweaver–Burk plots); type: biochemical, mushroom
T2 construct: purchased Sigma Chemicals (St. Louis, MO, USA)
T2 sequence (C7FF04 1-392): as above
Procedure: Due to the potent inhibition of mushroom tyrosinase by compound 4b, kinetic studies were conducted using Lineweaver–Burk double reciprocal plots to elucidate its inhibitory mechanisms. […] concentrations (0 μM, 3 μM, 6 μM, and 12 μM) of the indole derivative 4b in the presence of varying L-tyrosine concentrations (0.1, 0.2, 0.4, 0.6, 0.8, 1 mM) were employed for the kinetic analyses. The Lineweaver–Burk plots generated four distinct lines with different slopes corresponding to each concentration of the derivative. […] Specifically, the KM values were 1.515, 7.846, 15.740, and 23.586 mM at 0, 3, 6, and 12 μM of 4b, respectively.
The kinetic experiment was intended to elucidate the inhibitory behavior of compound 4b against tyrosinase. Four different doses of 4b (0, 3, 6, and 12 µM) were investigated to characterize its inhibition pattern with respect to tyrosinase activity. Various concentrations of L-tyrosine substrate ranging from 0.1 to 1 mM were employed across all experiments. The initial incubation time and reading period mirrored those outlined in the anti-tyrosinase inhibition method. The maximum initial velocity (V₀) was determined from the linear phase of absorbance measurements taken over 5 min following the addition of the enzyme solution. The inhibition mode was further delineated using a Lineweaver–Burk plot, where the reciprocal of velocities (1/V) was plotted against the reciprocal of substrate concentrations utilized.

SMILES	melting point	Main peak area (HPLC), stability in aqueous solution ([1]; 0 day)	Main peak area (HPLC), stability in aqueous solution ([1]; 2 months)	Main peak area (HPLC), stability in aqueous solution ([1]; 2 day)	Main peak area (HPLC), stability in aqueous solution ([1]; 4 days)	EC50 [2]	IC50 (mushroom tyrosinase)	Tyrosinase inhibition activity (tyrosinase)	Effect on B16F10 melanoma cells (B16F10 melanoma cells)	Inhibition mode (mTYR; Lineweaver–Burk plots, versus L-tyrosine)	Ki (mTYR; at 6 μM of 4b)	Ki (mTYR; at 12 μM of 4b)	Vmax (mTYR; consistent across 0-12 μM 4b, L-tyrosine 0.1-1 mM)
NC(=S)N/N=C/c1c[nH]c2ccc(Br)cc12 [Compound 4d, (E)-2-((5-bromo-1H-indol-3-yl)methylene)hydrazine-1-carbothioamide]	215 to 217 °C	97.79%	91.28%	97.41%	96.80%	769 ± 2.6 µM	14.9 ± 2.86 µM						
CCn1cc(/C=N/NC(N)=S)c2ccccc21 [Compound 4f, (E)-2-((1-ethyl-1H-indol-3-yl)methylene)hydrazine-1-carbothioamide]	188 to 190 °C	97.80%	92.18%	96.99%	96.45%	> 1000 µM	127 ± 2.85 µM						
NC(=S)N/N=C/c1c[nH]c2ccc(O)cc12 [Compound 4k, (E)-2-((5-hydroxy-1H-indol-3-yl)methylene)hydrazine-1-carbothioamide]	261 to 263 °C	96.00%	94.13%	95.85%	95.32%	24.6 ± 3.7 µM	43.3 ± 3.46 µM						
NC(=S)N/N=C/c1c[nH]c2ccccc12 [Compound 4a, (E)-2-((1H-indol-3-yl)methylene)hydrazine-1-carbothioamide]		97.61%	91.27%	95.84%	95.76%		7.9 ± 4.07 µM						
Cn1cc(/C=N/NC(N)=S)c2ccccc21 [Compound 4g, (E)-2-((1-methyl-1H-indol-3-yl)methylene)hydrazine-1-carbothioamide]	199 to 201 °C	97.47%	95.20%	94.12%	94.58%	493.5 ± 0.7 µM	155.5 ± 1.07 µM						
OCCc1c[nH]c2ccccc12 [indole-3-ethanol]								significant tyrosinase inhibition activity					
O=C1O[C@H]([C@@H](O)CO)C(O)=C1O [Ascorbic acid, reference compound]						37.9 ± 0.3 µM							
O=Cc1c[nH]c2ccccc12 [indole-3-carbaldehyde]								significant tyrosinase inhibition activity					
O=C(O)c1c[nH]c2ccccc12 [indole-3-carboxylic acid]									inhibitory effects				
Cn1cc(/C=N/NC(N)=S)c2cc(Br)ccc21 [Compound 4i, (E)-2-((5-bromo-1-methyl-1H-indol-3-yl)methylene)hydrazine-1-carbothioamide]	220 to 222 °C	90.17%	65% and 65.06%	88.52%	88.22%	> 1000 µM	46.3 ± 3.11 µM						
NC(=S)N/N=C/c1c[nH]c2ccc(F)cc12 [Compound 4b, (E)-2-((5-fluoro-1H-indol-3-yl)methylene)hydrazine-1-carbothioamide]		97.21%	91.69%	97.10%	97.07%	544.3 ± 1.5 µM	5.9 ± 2.47 µM			competitive	0.0568 µM	0.0206 µM	0.0135 mM/min
O=C(O)Cc1c[nH]c2ccccc12 [indole-3-acetic acid]									inhibitory effects				
COC(=O)c1ccc2[nH]cc(/C=N/NC(N)=S)c2c1 [Compound 4j, Methyl(E)-3-((2-carbamothioylhydrazineylidene)methyl)-1H-indole-5-carboxylate]	247 to 249 °C	97.37%	90.86%	97.13%	96.75%	275.7 ± 2.7 µM	103 ± 2.72 µM						
COc1ccc2[nH]cc(/C=N/NC(N)=S)c2c1 [Compound 4e, (E)-2-((5-methoxy-1H-indol-3-yl)methylene)hydrazine-1-carbothioamide]		98.00%	94.97%	97.87%	96.87%	603.4 ± 1 µM	30.1 ± 1.77 µM						
COc1ccc2c(c1)c(/C=N/NC(N)=S)cn2C [Compound 4h, (E)-2-((5-methoxy-1-methyl-1H-indol-3-yl)methylene)hydrazine-1-carbothioamide]	203 to 205 °C	96.18%	90.15%	95.87%	95.83%	340.2 ± 3.1 µM	163 ± 3.81 µM						
NC(=S)N/N=C/c1c[nH]c2ccc(Cl)cc12 [Compound 4c, (E)-2-((5-chloro-1H-indol-3-yl)methylene)hydrazine-1-carbothioamide]	212 to 214 °C	96.24%	91.89%	96.04%	95.74%	659.2 ± 0.5 µM	13.2 ± 1.68 µM						
